Measured values reported in patent US6680331B2, “Lactam and thiolactam derivatives as anesthetic and conscious sedation agents” (priority 2001, dated 2004).
Where “and” joins values, the source holds several entries; their conditions need not be identical. Equal entries are not always repeated.

Tests used:
Female ICR mice = assay: Loss of righting reflex (LORR) model of anesthesia; type: in vivo
Excerpt: Female ICR mice, weighing between 18 and 31 g were used for all experiments. The animals were housed four in a cage in a […] light/dark cycle with free access to food and water. Animal weight at the time of the experiment ranged from 22 to 33 g. On the day of the experiment, animals were brought to the lab in groups of 6-8. They were not allowed food or water for the duration of the testing period. After each experiment, animals were sacrificed.
Diethyl lactam was synthesized as described previously (Example 1 and U.S. Pat. Nos. 6,066,666 and 5,776,959) and dissolved in 0.9% saline. All drugs were given by intraperitoneal (i.p.) injections in a volume of 0.01 ml/g body weight.
The anesthetic effect was determined using the loss of righting reflex (LORR) model of anesthesia. […] The time to onset and duration of loss of righting reflex was recorded for each animal.
Animals were given diethyl lactam at doses of 250, 325, 375, 500, 625, 750, 875 and 1000 mg/kg of body weight, and the time to regain the righting reflex (RR) as well as the duration of LORR were measured (Table 1). […] Other movements include a shiver (one mouse), a head twitch (one mouse), face vibrations (one mouse) and repetitive hindlimb scratching (one mouse).

mice = conditions: cited from earlier work
[1] = 500 mg/kg i.p., mice, ± one standard deviation
[2] = 625 mg/kg i.p., mice, ± one standard deviation
[3] = 750 mg/kg i.p., mice, ± one standard deviation
[4] = 1000 mg/kg i.p., mice, ± one standard deviation
[5] = 1000 mg/kg i.p., two mice excluded from the trial, listed as diethyl lactam

CCC1(CC)CCNC1=O [DiethylABL, 3,3-diethyl-2-pyrrolidinone]
Duration of LORR (Female ICR mice; 250 mg/kg i.p., mice): 0 min | LORR (time to onset of loss of righting reflex) (Female ICR mice; 250 mg/kg i.p., mice): none at 30 min | Duration of LORR (Female ICR mice; 325 mg/kg i.p., mice): 0 min | LORR (time to onset of loss of righting reflex) (Female ICR mice; 325 mg/kg i.p., mice): none at 30 min | Duration of LORR (Female ICR mice; 375 mg/kg i.p., mice): 0 min | LORR (time to onset of loss of righting reflex) (Female ICR mice; 375 mg/kg i.p., mice): none at 30 min | Face vibrations (Female ICR mice; 500 mg/kg i.p., five mice): one mouse | Head twitch (Female ICR mice; 500 mg/kg i.p., five mice): one mouse | Mice seen to twitch (Female ICR mice; 500 mg/kg i.p., five mice): Three of the five | Repetitive hindlimb scratching (Female ICR mice; 500 mg/kg i.p., five mice): one mouse | Shiver (Female ICR mice; 500 mg/kg i.p., five mice): one mouse | Physical movements observed during the experiment (Female ICR mice; 500 mg/kg i.p., mice): various physical movements | Duration of LORR (Female ICR mice; [1]): 38.8 ± 11.6 min | LORR (time to onset of loss of righting reflex) (Female ICR mice; [1]): 2.4 ± 1.8 min | Regain RR (Female ICR mice; [1]): 41 ± 12 min | Duration of LORR (Female ICR mice; [2]): 51.3 ± 16.2 min | LORR (time to onset of loss of righting reflex) (Female ICR mice; [2]): 1.7 ± 0.8 min | Regain RR (Female ICR mice; [2]): 53 ± 16 min | Duration of LORR (Female ICR mice; [3]): 109.7 ± 2.0 min | LORR (time to onset of loss of righting reflex) (Female ICR mice; [3]): 0.9 ± 0.3 min | Regain RR (Female ICR mice; [3]): 110 ± 2 min | Duration of LORR (Female ICR mice; 875 mg/kg i.p., mice): >360 min | LORR (time to onset of loss of righting reflex) (Female ICR mice; 875 mg/kg i.p., mice): 0.8 min | Regain RR (Female ICR mice; 875 mg/kg i.p., mice): >360 min | Duration of LORR (Female ICR mice; [4]): 1470.0 ± 756 min | LORR (time to onset of loss of righting reflex) (Female ICR mice; [4]): 2.0 ± 2.1 min | Regain RR (Female ICR mice; [4]): 1470 ± 85 min | LORR (time to onset), individual mice excluded as outliers (Female ICR mice; [5]): 2.4 min and 4.2 min | LORR duration, individual mice excluded as outliers (Female ICR mice; [5]): 156.6 min and 170.3 min | Regaining RR, individual mice excluded as outliers (Female ICR mice; [5]): 159 min and 174.5 min | Time of death after injection (Female ICR mice; 1000 mg/kg i.p., two mice included in the trial, listed as diethyl lactam): 7.3 min and 4.0 min

CCC1(CC)CCCNC1=O [3,3-diethyl-2-piperidinone]
Sedative activity (mice): only weak sedative activity
